US11559512B2, “Composition for prevention, alleviation, and/or treatment of heat illness” (priority 2017, dated 2023)

How the values were obtained:
[1] = tested on: human vascular endothelial cells (HUVECs)
Procedure: Then, 2 mL of trypsin/EDTA was added to the cells, and the cells were detached by incubation at 37° C. in a 5% CO2 environment. After the cell detachment, 5 mL/dish of a culture medium was added, and the cells were transferred to a 15-mL tube and centrifuged at 1200 rpm for 5 minutes in a centrifuge. The supernatant was removed, and then, the number of cells was adjusted to a cell density of 5×10^4 cells/mL using a cell counting kit by the addition of 5 mL of a culture medium. Then, two 6-well plates were used, and the solution with the adjusted HUVEC density was inoculated at 4 mL/well to 3 wells of each plate. Each phytochemical component was added at 4 μL (final concentration: 10 μM)/well to one well of each plate. Also, a phytochemical dissolving solution DMSO was added at 4 μL/well to the remaining wells to prepare a control. […]
Serial dilutions of auraptene were added to the cells, and the cell death of the HUVECs caused by heat stress was observed by crystal violet staining.

CCL-2 = CCL-2 concentration in supernatant of lymphocytes under heat stress load (ELISA); assay type: cell-based, human
Procedure: 10 mL of human peripheral blood was collected and anti-coagulated with heparin, and 10 mL of PBS(−) was added thereto and stirred. 15 mL of Lymphocyte Separation Medium 1077 (PromoCell GmbH) was layered thereon so as not to mix blood thereinto, followed by blood separation at 1600 rpm for 30 minutes in a centrifuge. The mononuclear cell layer thus separated was collected into a dropper, added to 20 mL of a culture medium, and centrifuged at 1500 rpm for 5 minutes in a centrifuge. The supernatant was removed, and then, 20 mL of a culture solution was added to the cells and stirred. The cells were centrifuged again at 1500 rpm for 5 minutes in a centrifuge. The supernatant was removed, and then, 10 mL of a culture medium was added to the cells and stirred. The whole amount was added to a 10-cm dish and incubated at 37° C. for 1 hour in a 5% CO2 environment. […] The solution with the adjusted lymphocyte density was inoculated at 4 mL/well to 2 wells of each 6-well plate. […] Then, the supernatant was recovered into a 1.5-mL Eppendorf tube and centrifuged at 8000 rpm for 5 minutes in a centrifuge. […]
The solution was removed, and each well was washed four times. […] TMB Microwell Peroxidase Substrate was added at 100 μL/well, followed by the absorbance measurement of the reaction solution in a plate reader at 450 nm.

IL-6 = IL-6 concentration in supernatant of lymphocytes under heat stress load (ELISA); assay type: cell-based, human
Procedure: 10 mL of human peripheral blood was collected and anti-coagulated with heparin, and 10 mL of PBS(−) was added thereto and stirred. 15 mL of Lymphocyte Separation Medium 1077 (PromoCell GmbH) was layered thereon so as not to mix blood thereinto, followed by blood separation at 1600 rpm for 30 minutes in a centrifuge. The mononuclear cell layer thus separated was collected into a dropper, added to 20 mL of a culture medium, and centrifuged at 1500 rpm for 5 minutes in a centrifuge. The supernatant was removed, and then, 20 mL of a culture medium was added to the cells and stirred. The cells were centrifuged again at 1500 rpm for 5 minutes in a centrifuge. The supernatant was removed, and then, 10 mL of a culture medium was added to the cells and stirred. The whole amount was added to a 10-cm dish and incubated at 37° C. for 1 hour in a 5% CO2 environment. […] The solution with the adjusted lymphocyte density was inoculated at 4 mL/well to 2 wells of each 6-well plate. […] Then, the supernatant was recovered into a 1.5 mL Eppendorf tube and centrifuged at 8000 rpm for 5 minutes in a centrifuge. The supernatant was recovered into a fresh 1.5-mL Eppendorf tube and preserved at −20° C.
Human IL-6 of an ELISA kit was used in IL-6 measurement. 5× Coating Buffer A included in the assay kit was diluted 5-fold with distilled water. Capture Antibody diluted 200-fold with the Coating Buffer was added at 100 μL/well to a 96-well plate, and the plate was left standing overnight at 4° C.
The antibody solution was removed, and each well was washed four times. A very small amount of the reaction solution remaining in the plate was completely removed with Kim Towel. Then, ELISA Assay Diluent (BioLegend, Inc.) diluted 5-fold with distilled water was added at 200 μL/well, and the plate was left standing overnight at 4° C.
The solution was removed, and each well was washed four times. A very small amount of the reaction solution remaining in the plate was completely removed with Kim Towel. IL-6 standard protein was diluted with Assay Diluent to prepare dilution series of the IL-6 standard protein. The dilution series of the IL-6 standard protein and the 40° C. culture supernatant of the lymphocytes were added at 100 μL/well, and the plate was left standing at room temperature for 2 hours. The solution was removed, and each well was washed four times. A very small amount of the reaction solution remaining in the plate was completely removed with Kim Towel. Detection Antibody diluted 200-fold with Assay Diluent was added at 100 μL/well, and the plate was left standing at room temperature for 1 hour. […] The reaction was terminated by the addition of 2 N H2SO4 at 100 μL/well, followed by the absorbance measurement of the reaction solution in a plate reader at 450 nm.

[2] = peripheral blood lymphocytes under heat stress load, vs DMSO, p<0.05

CC(C)=CCC/C(C)=C/COc1ccc2ccc(=O)oc2c1 [auraptene, 7-geranyloxycoumarin] was tested, and the “cell survival by crystal violet staining” value ([1]; HUVECs cultured at 40° C. for 3 days, vs DMSO) was “evidently increased cell survival”, the concentration at which the cell death suppressive effect was confirmed (value in brackets) ([1]; HUVECs, 40° C. for 3 days, crystal violet staining) was 600 nM and the “concentration at which the cell death suppressive effect was confirmed” value ([1]; HUVECs, 40° C. for 3 days, serial dilutions, crystal violet staining) was 0.6 µM. For the same compound, the “Cytotoxicity (cell death)” value ([1]; Table 2 summary, HUVECs 40° C., 37° C. as comparative control) was “Suppressed”, the “CCL-2 sample A” value (CCL-2; peripheral blood lymphocytes sample A, 40° C., auraptene 10 μM, non-addition 61 ± 0.2) was 32 ± 1.7 pg/mL and the “production of CCL-2” value (CCL-2; [2]) was “significantly suppressed”. For the same compound, the Pyrogenic factor (IL-6; Table 2 summary, 40° C., inflammatory cytokines, e.g. IL-6 and CCL-2) was “Decreased”, the “IL-6 sample A” value (IL-6; peripheral blood lymphocytes sample A, 40° C., auraptene 10 μM, non-addition 10 ± 1.1) was 5 ± 0.3 pg/mL and the “IL-6 sample B” value (IL-6; peripheral blood lymphocytes sample B, 40° C., auraptene 10 μM, non-addition 18 ± 0.8) was 10 ± 0.1 pg/mL. The “production of IL-6” value (IL-6; [2]) was “significantly suppressed”.
